According to patent US20230365592A1 (Agios Pharmaceuticals, Inc., priority 2022, published 2023):

Each compound was assayed against T1, human PAH with the R408W mutation (Homo sapiens, UniProt P00439, R408W) (assay: Cell Based Phenylalanine Flux Assay). Conditions: A375 cells expressing human R408W PAH; 24 hrs compound incubation; 13C-Tyrosine by LC-MS; average where tested multiple times; read-out: AC50.
T1 construct: expressed in transfected cells
T1 sequence (P00439 1-452 R408W): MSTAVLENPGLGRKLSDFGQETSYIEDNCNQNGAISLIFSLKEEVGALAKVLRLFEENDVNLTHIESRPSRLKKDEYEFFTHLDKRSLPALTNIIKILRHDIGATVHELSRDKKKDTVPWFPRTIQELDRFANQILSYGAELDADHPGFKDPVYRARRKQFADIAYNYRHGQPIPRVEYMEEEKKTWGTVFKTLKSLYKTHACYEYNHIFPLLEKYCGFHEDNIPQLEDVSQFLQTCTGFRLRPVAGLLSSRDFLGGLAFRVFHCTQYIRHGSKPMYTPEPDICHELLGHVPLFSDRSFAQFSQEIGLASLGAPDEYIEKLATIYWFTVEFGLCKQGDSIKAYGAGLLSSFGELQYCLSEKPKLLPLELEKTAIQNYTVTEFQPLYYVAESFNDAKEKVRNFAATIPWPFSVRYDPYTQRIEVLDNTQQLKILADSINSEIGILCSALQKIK
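Note: after compound treatment, cells received sepiapterin plus isotope-labelled Phenylalanine for 4 hours, then labelled Tyrosine in the medium was quantified, 10-point 2-fold dilution series run in duplicate.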

**Q.** Which AC50 does the source give for `O=C(c1nnc(-c2cccnc2)o1)N1CCc2[nH]cnc2[C@H]1c1cc2c(Cl)cccn2n1` [Example 1292, (S)-(4-(4-chloropyrazolo[1,5-a]pyridin-2-yl)-6,7-dihydro-1H-imidazo[4,5-c]pyridin-5(4H)-yl)(5-(pyridin-3-yl)-1,3,4-oxadiazol-2-yl)methanone] here?
**A.** Its AC50 is under 500 nM.

**Q.** For `O=C(c1nnc(-c2cccnc2)o1)N1CCc2[nH]cnc2[C@@H]1c1cc2c(Cl)cccn2n1` [Example 1293, (R)-(4-(4-chloropyrazolo[1,5-a]pyridin-2-yl)-6,7-dihydro-1H-imidazo[4,5-c]pyridin-5(4H)-yl)(5-(pyridin-3-yl)-1,3,4-oxadiazol-2-yl)methanone], which AC50 is on record?
**A.** The AC50 was 1000 to 5000 nM.

**Q.** `O=C(c1nnc(-c2ncccc2F)o1)N1CCc2[nH]cnc2[C@@H]1c1cc2c(Cl)cccn2n1` [Example 1294, (R)-(4-(4-chloropyrazolo[1,5-a]pyridin-2-yl)-6,7-dihydro-1H-imidazo[4,5-c]pyridin-5(4H)-yl)(5-(3-fluoropyridin-2-yl)-1,3,4-oxadiazol-2-yl)methanone] was tested. Which AC50 did it give?
**A.** Its AC50 is 1000 to 5000 nM.

**Q.** With `O=C(c1nnc(-c2ncccc2F)o1)N1CCc2[nH]cnc2[C@H]1c1cc2c(Cl)cccn2n1` [Example 1295, (S)-(4-(4-chloropyrazolo[1,5-a]pyridin-2-yl)-6,7-dihydro-1H-imidazo[4,5-c]pyridin-5(4H)-yl)(5-(3-fluoropyridin-2-yl)-1,3,4-oxadiazol-2-yl)methanone] as the compound, how does the AC50 read?
**A.** The AC50 was under 500 nM.

**Q.** `CC1(c2nnc(C(=O)N3CCc4[nH]cnc4[C@H]3c3cc4cccc(Cl)n4n3)o2)CC1` [Example 1296, (S)-(4-(7-chloropyrazolo[1,5-a]pyridin-2-yl)-6,7-dihydro-1H-imidazo[4,5-c]pyridin-5(4H)-yl)(5-(1-methylcyclopropyl)-1,3,4-oxadiazol-2-yl)methanone] was tested. Which AC50 did it give?
**A.** Its AC50 is under 500 nM.

**Q.** For `CC1(c2nnc(C(=O)N3CCc4[nH]cnc4[C@@H]3c3cc4cccc(Cl)n4n3)o2)CC1` [Example 1297, (R)-(4-(7-chloropyrazolo[1,5-a]pyridin-2-yl)-6,7-dihydro-1H-imidazo[4,5-c]pyridin-5(4H)-yl)(5-(1-methylcyclopropyl)-1,3,4-oxadiazol-2-yl)methanone], which AC50 is on record?
**A.** Its AC50 is 1000 to 5000 nM.

**Q.** With `COc1ccc(-c2nnc(C(=O)N3CCc4[nH]cnc4[C@@H]3c3cc4c(Cl)cccn4n3)o2)nc1` [Example 1298, (R)-(4-(4-chloropyrazolo[1,5-a]pyridin-2-yl)-6,7-dihydro-1H-imidazo[4,5-c]pyridin-5(4H)-yl)(5-(5-methoxypyridin-2-yl)-1,3,4-oxadiazol-2-yl)methanone] as the compound, how does the AC50 read?
**A.** Its AC50 is 1000 to 5000 nM.

**Q.** For `O=C(c1nnc(-c2cnccn2)o1)N1CCc2[nH]cnc2[C@H]1c1cc2c(C(F)(F)F)cccn2n1` [Example 1300, (S)-(5-(pyrazin-2-yl)-1,3,4-oxadiazol-2-yl)(4-(4-(trifluoromethyl)pyrazolo[1,5-a]pyridin-2-yl)-6,7-dihydro-1H-imidazo[4,5-c]pyridin-5(4H)-yl)methanone], which AC50 is on record?
**A.** The AC50 was under 500 nM.

**Q.** How did the AC50 turn out when `O=C(c1nnc(-c2cnccn2)o1)N1CCc2[nH]cnc2[C@@H]1c1cc2c(C(F)(F)F)cccn2n1` [Example 1301, (R)-(5-(pyrazin-2-yl)-1,3,4-oxadiazol-2-yl)(4-(4-(trifluoromethyl)pyrazolo[1,5-a]pyridin-2-yl)-6,7-dihydro-1H-imidazo[4,5-c]pyridin-5(4H)-yl)methanone] was run?
**A.** The AC50 was over 5000 nM.

**Q.** How did the AC50 turn out when `O=C(c1nnc(-c2cccnc2)o1)N1CCc2[nH]cnc2[C@H]1c1cc2c(C(F)(F)F)cccn2n1` [Example 1302, (S)-(5-(pyridin-3-yl)-1,3,4-oxadiazol-2-yl)(4-(4-(trifluoromethyl)pyrazolo[1,5-a]pyridin-2-yl)-6,7-dihydro-1H-imidazo[4,5-c]pyridin-5(4H)-yl)methanone] was run?
**A.** The AC50 was under 500 nM.

**Q.** For `O=C(c1nnc(-c2cccnc2)o1)N1CCc2[nH]cnc2[C@@H]1c1cc2c(C(F)(F)F)cccn2n1` [Example 1303, (R)-(5-(pyridin-3-yl)-1,3,4-oxadiazol-2-yl)(4-(4-(trifluoromethyl)pyrazolo[1,5-a]pyridin-2-yl)-6,7-dihydro-1H-imidazo[4,5-c]pyridin-5(4H)-yl)methanone], which AC50 is on record?
**A.** The AC50 was 1000 to 5000 nM.

**Q.** For `Cc1ncccc1-c1nnc(C(=O)N2CCc3[nH]cnc3[C@H]2c2cc3c(C(F)(F)F)cccn3n2)o1` [Example 1304, (S)-(5-(2-methylpyridin-3-yl)-1,3,4-oxadiazol-2-yl)(4-(4-(trifluoromethyl)pyrazolo[1,5-a]pyridin-2-yl)-6,7-dihydro-1H-imidazo[4,5-c]pyridin-5(4H)-yl)methanone], which AC50 is on record?
**A.** The AC50 was under 500 nM.

**Q.** With `O=C(c1nnc(-c2cccnc2)o1)N1CCc2[nH]cnc2[C@H]1c1cc2cccc(Cl)n2n1` [Example 1306, (S)-(4-(7-chloropyrazolo[1,5-a]pyridin-2-yl)-6,7-dihydro-1H-imidazo[4,5-c]pyridin-5(4H)-yl)(5-(pyridin-3-yl)-1,3,4-oxadiazol-2-yl)methanone] as the compound, how does the AC50 read?
**A.** Its AC50 is under 500 nM.

**Q.** How did the AC50 turn out when `O=C(c1nnc(-c2cccnc2)o1)N1CCc2[nH]cnc2[C@@H]1c1cc2cccc(Cl)n2n1` [Example 1307, (R)-(4-(7-chloropyrazolo[1,5-a]pyridin-2-yl)-6,7-dihydro-1H-imidazo[4,5-c]pyridin-5(4H)-yl)(5-(pyridin-3-yl)-1,3,4-oxadiazol-2-yl)methanone] was run?
**A.** The AC50 was 1000 to 5000 nM.

**Q.** With `Cc1cccc2cc([C@@H]3c4nc[nH]c4CCN3C(=O)c3nnc(-c4cccnc4)o3)nn12` [Example 1308, (S)-(4-(7-methylpyrazolo[1,5-a]pyridin-2-yl)-6,7-dihydro-1H-imidazo[4,5-c]pyridin-5(4H)-yl)(5-(pyridin-3-yl)-1,3,4-oxadiazol-2-yl)methanone] as the compound, how does the AC50 read?
**A.** The AC50 was under 500 nM.

**Q.** For `Cc1cccc2cc([C@H]3c4nc[nH]c4CCN3C(=O)c3nnc(-c4cccnc4)o3)nn12` [Example 1309, (R)-(4-(7-methylpyrazolo[1,5-a]pyridin-2-yl)-6,7-dihydro-1H-imidazo[4,5-c]pyridin-5(4H)-yl)(5-(pyridin-3-yl)-1,3,4-oxadiazol-2-yl)methanone], which AC50 is on record?
**A.** The AC50 was 1000 to 5000 nM.

**Q.** For `Cc1cccn2nc([C@H]3c4nc[nH]c4CCN3C(=O)c3nnc(-c4ncccn4)o3)cc12` [Example 1310, (R)-(4-(4-methylpyrazolo[1,5-a]pyridin-2-yl)-6,7-dihydro-1H-imidazo[4,5-c]pyridin-5(4H)-yl)(5-(pyrimidin-2-yl)-1,3,4-oxadiazol-2-yl)methanone], which AC50 is on record?
**A.** Its AC50 is 1000 to 5000 nM.

**Q.** Which AC50 does the source give for `Cc1cccn2nc([C@@H]3c4nc[nH]c4CCN3C(=O)c3nnc(-c4ncccn4)o3)cc12` [Example 1311, (S)-(4-(4-methylpyrazolo[1,5-a]pyridin-2-yl)-6,7-dihydro-1H-imidazo[4,5-c]pyridin-5(4H)-yl)(5-(pyrimidin-2-yl)-1,3,4-oxadiazol-2-yl)methanone] here?
**A.** Its AC50 is 500 to 1000 nM.

**Q.** Which AC50 does the source give for `O=C(c1nnc(-c2ncccn2)o1)N1CCc2[nH]cnc2[C@@H]1c1cc2c(F)cccn2n1` [Example 1312, (R)-(4-(4-fluoropyrazolo[1,5-a]pyridin-2-yl)-6,7-dihydro-1H-imidazo[4,5-c]pyridin-5(4H)-yl)(5-(pyrimidin-2-yl)-1,3,4-oxadiazol-2-yl)methanone] here?
**A.** The AC50 was 1000 to 5000 nM.

**Q.** For `O=C(c1nnc(-c2ncccn2)o1)N1CCc2[nH]cnc2[C@H]1c1cc2c(F)cccn2n1` [Example 1313, (S)-(4-(4-fluoropyrazolo[1,5-a]pyridin-2-yl)-6,7-dihydro-1H-imidazo[4,5-c]pyridin-5(4H)-yl)(5-(pyrimidin-2-yl)-1,3,4-oxadiazol-2-yl)methanone], which AC50 is on record?
**A.** The AC50 was 500 to 1000 nM.

**Q.** Which AC50 does the source give for `Cn1cc(-c2nnc(C(=O)N3CCc4[nH]cnc4[C@H]3c3cc4c(C(F)F)cccn4n3)o2)cn1` [Example 1316, (S)-(4-(4-(difluoromethyl)pyrazolo[1,5-a]pyridin-2-yl)-6,7-dihydro-1H-imidazo[4,5-c]pyridin-5(4H)-yl)(5-(1-methyl-1H-pyrazol-4-yl)-1,3,4-oxadiazol-2-yl)methanone] here?
**A.** The AC50 was under 500 nM.

**Q.** For `Cn1cc(-c2nnc(C(=O)N3CCc4[nH]cnc4[C@@H]3c3cc4c(C(F)F)cccn4n3)o2)cn1` [Example 1317, (R)-(4-(4-(difluoromethyl)pyrazolo[1,5-a]pyridin-2-yl)-6,7-dihydro-1H-imidazo[4,5-c]pyridin-5(4H)-yl)(5-(1-methyl-1H-pyrazol-4-yl)-1,3,4-oxadiazol-2-yl)methanone], which AC50 is on record?
**A.** Its AC50 is 1000 to 5000 nM.

**Q.** `Cc1cccc2cc([C@@H]3c4nc[nH]c4CCN3C(=O)c3nnc(C4(C)CC4)o3)nn12` [Example 1319, (S)-(5-(1-methylcyclopropyl)-1,3,4-oxadiazol-2-yl)(4-(7-methylpyrazolo[1,5-a]pyridin-2-yl)-6,7-dihydro-1H-imidazo[4,5-c]pyridin-5(4H)-yl)methanone] was tested. Which AC50 did it give?
**A.** Its AC50 is under 500 nM.

**Q.** With `CC1(c2nnc(C(=O)N3CCc4[nH]cnc4[C@@H]3c3cc4c(Cl)cccn4n3)o2)CC1` [Example 1320, (R)-(4-(4-chloropyrazolo[1,5-a]pyridin-2-yl)-6,7-dihydro-1H-imidazo[4,5-c]pyridin-5(4H)-yl)(5-(1-methylcyclopropyl)-1,3,4-oxadiazol-2-yl)methanone] as the compound, how does the AC50 read?
**A.** Its AC50 is 1000 to 5000 nM.

**Q.** `CC1(c2nnc(C(=O)N3CCc4[nH]cnc4[C@H]3c3cc4c(Cl)cccn4n3)o2)CC1` [Example 1321, (S)-(4-(4-chloropyrazolo[1,5-a]pyridin-2-yl)-6,7-dihydro-1H-imidazo[4,5-c]pyridin-5(4H)-yl)(5-(1-methylcyclopropyl)-1,3,4-oxadiazol-2-yl)methanone] was tested. Which AC50 did it give?
**A.** The AC50 was under 500 nM.

**Q.** For `Cc1cccn2nc([C@H]3c4nc[nH]c4CCN3C(=O)c3nnc(C4(C)CC4)o3)cc12` [Example 1322, (R)-(5-(1-methylcyclopropyl)-1,3,4-oxadiazol-2-yl)(4-(4-methylpyrazolo[1,5-a]pyridin-2-yl)-6,7-dihydro-1H-imidazo[4,5-c]pyridin-5(4H)-yl)methanone], which AC50 is on record?
**A.** The AC50 was 1000 to 5000 nM.
